Experimental data as given in the supplement of paper PMC10307832.

Columns and labels:
Test in all cases: relative viability (nuclei count vs DMSO), 5 days (fraction); higher = more cells survive
[1] = compound: Cc1ccc(C(=O)Nc2ccc(CN3CCN(C)CC3)c(C(F)(F)F)c2)cc1C#Cc1cnc2cccnn12 [Ponatinib] + COc1cccc2cc(-c3nc([C@H]4CC[C@H](C(=O)O)CC4)n4ncnc(N)c34)[nH]c12 [OSI-027] (partner 0.5 µM)
Summary of the method: (§1)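 Lung cancer cell lines were seeded in 1536-well plates and dosed by pin tool the next day, with either a single drug or a fixed anchor-drug dose combined with five library-drug doses (not always all listed) spaced in √10 steps. Five days later, one step fixed the cells and stained their nuclei (final 0.05% Triton X-100, 1% formaldehyde, 1 ug/ml Hoechst), and nuclei were counted on 4× images. Relative viability is the nuclei count in treated wells divided by the count in vehicle wells, and each value is the median of duplicate plates.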

[2] = compound: Cc1ccc(Nc2nccc(N(C)c3ccc4c(C)n(C)nc4c3)n2)cc1S(N)(=O)=O [Pazopanib] + Cc1nc(Nc2ncc(C(=O)Nc3c(C)cccc3Cl)s2)cc(N2CCN(CCO)CC2)n1 [Dasatinib] (partner 0.075 µM)
Summary of the method: as §1

[3] = compound: Cc1ccc(C(=O)Nc2ccc(CN3CCN(C)CC3)c(C(F)(F)F)c2)cc1C#Cc1cnc2cccnn12 [Ponatinib] + CS(=O)(=O)N1CCN(Cc2cc3nc(-c4cccc5[nH]ncc45)nc(N4CCOCC4)c3s2)CC1 [Pictilisib] (partner 1 µM)
Summary of the method: as §1

[4] = compound: Cc1ccc(Nc2nccc(N(C)c3ccc4c(C)n(C)nc4c3)n2)cc1S(N)(=O)=O [Pazopanib] + CS(=O)(=O)CCNCc1ccc(-c2ccc3ncnc(Nc4ccc(OCc5cccc(F)c5)c(Cl)c4)c3c2)o1 [Lapatinib] (partner 2 µM)
Summary of the method: as §1

Cell Line | relative viability ([1]; first compound 0.002 µM) | relative viability ([1]; first compound 0.006325 µM) | relative viability ([1]; first compound 0.06325 µM) | relative viability ([1]; first compound 0.2 µM) | relative viability ([2]; first compound 0.01 µM) | relative viability ([2]; first compound 0.03162 µM) | relative viability ([2]; first compound 0.1 µM) | relative viability ([2]; first compound 0.3162 µM) | relative viability ([2]; first compound 1 µM) | relative viability ([3]; first compound 0.002 µM) | relative viability ([3]; first compound 0.006325 µM) | relative viability ([3]; first compound 0.06325 µM) | relative viability ([3]; first compound 0.2 µM) | relative viability ([4]; first compound 0.01 µM) | relative viability ([4]; first compound 0.03162 µM) | relative viability ([4]; first compound 0.1 µM) | relative viability ([4]; first compound 0.3162 µM) | relative viability ([4]; first compound 1 µM)
CAL-12T | 0.571 | 0.523 | 0.568 | 0.418 | 0.308 | 0.412 | 0.312 | 0.458 | 0.462 | 0.425 | 0.464 | 0.515 | 0.432 | 0.483 | 0.669 | 0.69 | 0.733 | 0.816
SK-LU-1 | 0.334 | 0.345 | 0.344 | 0.248 | 0.142 | 0.179 | 0.192 | 0.189 | 0.174 | 0.518 | 0.63 | 0.523 | 0.377 | 0.903 | 0.942 | 1.18 | 0.976 | 0.871
NCI-H1650 | 0.611 | 0.66 | 0.748 | 0.568 | 0.301 | 0.375 | 0.381 | 0.319 | 0.403 | 0.601 | 0.722 | 0.642 | 0.558 | 0.693 | 0.868 | 0.718 | 0.82 | 0.895
BEN | 0.3 | 0.305 | 0.312 | 0.332 |  | 0.343 | 0.267 | 0.318 | 0.38 | 0.544 | 0.62 | 0.601 | 0.462 |  | 0.574 | 0.721 | 0.808 | 0.774
EMC-BAC-2 | 0.368 | 0.376 | 0.39 | 0.368 |  | 0.381 | 0.308 | 0.305 | 0.312 | 0.549 | 0.537 | 0.684 | 0.527 | 0.735 | 0.921 | 0.915 | 0.904 | 0.991
LU99A | 0.299 | 0.319 | 0.32 | 0.278 | 0.425 | 0.545 | 0.622 | 0.54 | 0.503 | 0.303 | 0.335 | 0.369 | 0.329 | 0.727 | 0.978 | 0.992 | 1.12 | 1.07
ABC-1 | 0.394 | 0.513 | 0.47 | 0.393 | 0.481 | 0.635 |  | 0.551 | 0.637 | 0.826 | 0.78 | 0.884 | 0.658 |  | 1.32 | 1.37 | 0.91 | 1.27
